In publication PMC10080691, “Enzyme-Responsive Double-Locked Photodynamic Molecular Beacon for Targeted Photodynamic Anticancer Therapy” (Journal of the American Chemical Society, 2023):

Molecular target: cathepsin B (Homo sapiens, UniProt P07858)
Assay: Cathepsin B-responsive fluorescence activation
Format: biochemical
Settings: 1 μM, cathepsin B only (1 unit mL-1), pH 5.0 buffer, 0.1% Tween 80, 37 °C
Protocol: To examine the response of PMB 1 toward MMP-2 and cathepsin B, its absorption and fluorescence spectra were monitored in the presence of these stimuli at 37 °C over a period of 25 h, using the non-cleavable analogue 14 as the negative control. For studying the MMP-2-responsive effect, MMP-2 (2 μg mL^–1) in PBS at pH 7.4 was used to mimic the high serum levels of this enzyme in patients with cancer.[68] The effect of cathepsin B (using a concentration of 1 unit mL^–1) was studied in the working buffer mentioned above at pH 5.0 to mimic the lysosomal environment.[69] […] Similar results were obtained for the study using cathepsin B in the buffer (Figure S8e–h). […] The more flexible ring-opening structure, however, might slightly increase the separation of the two moieties, leading to a lower FRET efficiency,[70] which could explain the small increase in fluorescence intensity. […] As expected, both the absorption and fluorescence spectra were not changed toward these two enzymes (Figure S9).
The fluorescence recovery was then determined for 1 under the aforementioned conditions, assuming that the fluorescence intensity of 8 at the same concentration in the same medium was the maximum fluorescence intensity that could be recovered. […]
All of the solutions were stirred continuously at 37 °C. The ir electronic absorption and fluorescence spectra were monitored over a period of 25 h. […]

CCN(CC)c1ccc2nc3ccc(/N=N/c4ccc(N(C)CCCNC(=O)OC[C@@H]5[C@@H]6CCc7nnn(CC(=O)NCCCC[C@@H]8NC(=O)CNC(=O)[C@H](CCCCN)NC(=O)[C@H](CCCNC(=N)N)NC(=O)[C@H](C(C)C)NC(=O)CNC(=O)[C@H](CC(C)C)NC(=O)[C@@H]9CCCN9C(=O)[C@H](CCCCN)NC(=O)[C@@H](N)CSCc9cc(COc%10ccc(C%11=C%12C(C)=C(I)C(/C=C/c%13ccc(OCCOCCOCCOC)cc%13)=[N+]%12[B-](F)(F)n%12c(/C=C/c%13ccc(OCCOCCOCCOC)cc%13)c(I)c(C)c%12%11)cc%10)cc(c9)CSC[C@@H](C(N)=O)NC(=O)[C@H](CCCCN)NC(=O)[C@H](CCCCN)NC(=O)CNC(=O)[C@H](CC(C)C)NC(=O)[C@H](Cc9ccccc9)NC(=O)CNC(=O)[C@H](CCCCN)NC(=O)CNC8=O)c7CC[C@@H]65)cc4)cc3[n+](-c3ccccc3)c2c1 [compound 1]
on/off ratio (fluorescence intensity at 25 h / initial intensity): ca. 2.7
